Experimental findings from patent publication US9149475B2, “Protein kinase C inhibitors and uses thereof” (Rigel Pharmaceuticals, Inc., priority 2009, dated 2015) are described below.

In general, IC50 refers to the concentration that inhibits the measured activity by half.

The first assay has as its system Human primary T cells. Kind of assay: IL-2 ELISA, human primary T cell, anti-CD3+CD28+ (whole cell assay). Type of assay: cell-based. As to conditions: Homo sapiens, T-cell, 24 h, human primary T cells stimulated with anti-CD3 + anti-CD28, 24 hours. Summed up:
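PBMC-derived T cells, pre-expanded on αCD3/αCD28 with IL-2 and then washed free of IL-2, were preincubated with compound for 1 hr at 37° C (100,000 cells/well). They were then stimulated on 1 μg/ml αCD3 plus 5 μg/ml αCD28 for 24 h, and supernatant IL-2 was measured by ELISA. The counter-assay used 0.5 ng/ml PMA plus 0.1 μM ionomycin instead.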
Take `CC(C)N1CCC(Oc2ccc(Nc3ncc(F)c(NC4CC(C)(C)NC(C)(C)C4)n3)cc2OC(F)F)CC1` [Compound I-104, N2-(4-(1-isopropylpiperidin-4-yloxy)-3-(difluoromethoxy)phenyl)-5-fluoro-N4-(2,2,6,6-tetramethylpiperidin-4-yl)pyrimidine-2,4-diamine]: the IC50 is under 0.25 µM.
On to `CC(C)N1CCC(Oc2ccc(Nc3ncc(F)c(NC4CC(C)(C)N(C)C(C)(C)C4)n3)cc2OC(F)F)CC1` [Compound I-105, N2-(4-(1-isopropylpiperidin-4-yloxy)-3-(difluoromethoxy)phenyl)-5-fluoro-N4-(1,2,2,6,6-pentamethylpiperidin-4-yl)pyrimidine-2,4-diamine], for which the IC50 is under 0.25 µM.
Turning to `CC1(C)CC(Nc2nc(Nc3cc(OC(F)F)cc(C(F)(F)F)c3)ncc2F)CC(C)(C)N1` [Compound I-106, N2-(3-(difluoromethoxy)-5-(trifluoromethyl)phenyl)-5-fluoro-N4-(2,2,6,6-tetramethylpiperidin-4-yl)pyrimidine-2,4-diamine], the IC50 was in the range of 0.5 to 1 µM.
On to `CN1C(C)(C)CC(Nc2nc(Nc3cc(OC(F)F)cc(C(F)(F)F)c3)ncc2F)CC1(C)C` [Compound I-107, N2-(3-(difluoromethoxy)-5-(trifluoromethyl)phenyl)-5-fluoro-N4-(1,2,2,6,6-pentamethylpiperidin-4-yl)pyrimidine-2,4-diamine], for which the concentration for half-maximal inhibition (IC50) lay in the range of 0.25 to 0.5 µM.
On the same count and under the same terms, for `CCOc1ccc(Nc2ncc(F)c(NC3CC(C)(C)NC(C)(C)C3)n2)cc1OC(F)F` [Compound I-108, N2-(3-(difluoromethoxy)-4-ethoxyphenyl)-5-fluoro-N4-(2,2,6,6-tetramethylpiperidin-4-yl)pyrimidine-2,4-diamine] the value was under 0.25 µM; for `CCOc1ccc(Nc2ncc(F)c(NC3CC(C)(C)N(C)C(C)(C)C3)n2)cc1OC(F)F` [Compound I-109, N2-(3-(difluoromethoxy)-4-ethoxyphenyl)-5-fluoro-N4-(1,2,2,6,6-pentamethylpiperidin-4-yl)pyrimidine-2,4-diamine], under 0.25 µM; for `COc1cc(NC(C)=O)cc(Nc2ncc(F)c(NC3CC(C)(C)N(C)C(C)(C)C3)n2)c1` [Compound I-110, N2-(3-Acetylamino-5-methoxyphenyl)-5-fluoro-N4-(1,2,2,6,6-pentamethylpiperidin-4-yl)-2,4-pyrimidinediamine], 0.5 to 1 µM.
As for `Cc1nnnn1-c1cc(Nc2ncc(F)c(NC3CC(C)(C)N(C)C(C)(C)C3)n2)cnc1O` [Compound I-112, 5-(4-(1,2,2,6,6-pentamethylpiperidin-4-ylamino)-5-fluoropyrimidin-2-ylamino)-3-(5-methyl-1H-tetrazol-1-yl)pyridin-2-ol], the IC50 is over 1 µM.
Still for that read-out and setting: for `Cc1nnnn1-c1cc(Nc2ncc(F)c(NC3CC(C)(C)N(C)C(C)(C)C3)n2)cnc1OC(C)C` [Compound I-113, 5-fluoro-N2-(6-isopropoxy-5-(5-methyl-1H-tetrazol-1-yl)pyridin-3-yl)-N4-(1,2,2,6,6-pentamethylpiperidin-4-yl)pyrimidine-2,4-diamine] the value was under 0.25 µM; for `Cc1nnnn1-c1cc(Nc2ncc(F)c(NC3CC(C)(C)NC(C)(C)C3)n2)cnc1OC(C)C` [Compound I-114, 5-fluoro-N2-(6-isopropoxy-5-(5-methyl-1H-tetrazol-1-yl)pyridin-3-yl)-N4-(2,2,6,6-tetramethylpiperidin-4-yl)pyrimidine-2,4-diamine], under 0.25 µM.
On to `Cc1ccc(C)n1-c1cc(Nc2ncc(F)c(NC3CC(C)(C)N(C)C(C)(C)C3)n2)cnc1OC(C)C` [Compound I-115, 5-fluoro-N2-(6-isopropoxy-5-(2,5-dimethyl-1H-pyrrol-1-yl)pyridin-3-yl)-N4-(1,2,2,6,6-pentamethylpiperidin-4-yl)pyrimidine-2,4-diamine], for which the IC50 is 0.5 to 1 µM.
Same read-out and setting: for `Cc1ccc(C)n1-c1cc(Nc2ncc(F)c(NC3CC(C)(C)NC(C)(C)C3)n2)cnc1OC(C)C` [Compound I-116, 5-fluoro-N2-(6-isopropoxy-5-(2,5-dimethyl-1H-pyrrol-1-yl)pyridin-3-yl)-N4-(2,2,6,6-tetramethylpiperidin-4-yl)pyrimidine-2,4-diamine] the value was 0.5 to 1 µM.
As to `CCOc1ncc(Nc2ncc(F)c(NC3CC(C)(C)N(C)C(C)(C)C3)n2)cc1OC(F)F` [Compound I-117, N2-(5-(difluoromethoxy)-6-ethoxypyridin-3-yl)-5-fluoro-N4-(1,2,2,6,6-pentamethylpiperidin-4-yl)pyrimidine-2,4-diamine], the IC50 is 0.25 to 0.5 µM.

The same assay, now with this note: human primary T cells stimulated with anti-CD3 + anti-CD28, 24 hours.
Turning to `CN1C(C)(C)CC(Nc2nc(Nc3cccc(-c4nnnn4C4CC4)c3)ncc2C#N)CC1(C)C` [Compound I-94, 5-Cyano-N2-{3-[1-N-cyclopropyl-(tetrazol-5-yl)]}phenyl-N4-(1,2,2,6,6-pentamethylpiperidin-4-yl)-2,4-pyrimidinediamine], the half-maximal inhibitory concentration (IC50) is under 0.25 µM.
As for `CC1(C)CC(Nc2nc(Nc3cccc(-c4nnnn4C4CC4)c3)ncc2C#N)CC(C)(C)N1` [Compound I-95, 5-Cyano-N2-{3-[1-N-cyclopropyl-(tetrazol-5-yl)]}phenyl-N4-(2,2,6,6-tetramethylpiperidin-4-yl)-2,4-pyrimidinediamine], the IC50 was 0.25 to 0.5 µM.
Take `CN1C(C)(C)CC(Nc2nc(Nc3cccc(-c4nnnn4CCF)c3)ncc2C#N)CC1(C)C` [Compound I-96, 5-Cyano-N2-{3-[1-N-(2-fluoroethyl)-(tetrazol-5-yl)]}phenyl-N4-(1,2,2,6,6-pentamethylpiperidin-4-yl)-2,4-pyrimidinediamine]: the half-maximal inhibitory concentration (IC50) was under 0.25 µM.
Turning to `CC1(C)CC(Nc2nc(Nc3cccc(-c4nnnn4CCF)c3)ncc2C#N)CC(C)(C)N1` [Compound I-97, 5-Cyano-N2-{3-[1-N-(2-fluoroethyl)-(tetrazol-5-yl)]}phenyl-N4-(2,2,6,6-tetramethylpiperidin-4-yl)-2,4-pyrimidinediamine], the half-maximal inhibitory concentration (IC50) was over 1 µM.
The same measure, in the same setting: for `Cc1ccc(C)n1-c1cc(Nc2ncc(F)c(NC3CC(C)(C)N(C)C(C)(C)C3)n2)ccc1F` [Compound I-100, N2-[3-(2,5-Dimethyl-pyrrol-1-yl)-4-fluoro]phenyl-5-fluoro-N4-(1,2,2,6,6-pentamethylpiperidin-4-yl)-2,4-pyrimidinediamine] the value was under 0.25 µM; for `Cc1ccc(C)n1-c1cc(Nc2ncc(F)c(NC3CC(C)(C)NC(C)(C)C3)n2)ccc1F` [Compound I-101, N2-[3-(2,5-Dimethyl-pyrrol-1-yl)-4-fluoro]phenyl-5-fluoro-N4-(2,2,6,6-tetramethylpiperidin-4-yl)-2,4-pyrimidinediamine], 0.25 to 0.5 µM.
As for `Cc1ccc(C)n1-c1cc(Nc2ncc(F)c(NC3CC(C)(C)N(C)C(C)(C)C3)n2)ccc1C#N` [Compound I-102, N2-[4-Cyano-3-(2,5-dimethyl-pyrrol-1-yl)]phenyl-5-fluoro-N4-(1,2,2,6,6-pentamethylpiperidin-4-yl)-2,4-pyrimidinediamine], the half-inhibitory concentration (IC50) lay within 0.25 to 0.5 µM.
Consider `Cc1ccc(C)n1-c1cc(Nc2ncc(F)c(NC3CC(C)(C)N(C)C(C)(C)C3)n2)ccc1OC(=O)NC(C)C` [Compound I-103, N2-[3-(2,5-Dimethyl-pyrrol-1-yl)-4-(isopropylaminocarboxyloxy)]phenyl-5-fluoro-N4-(1,2,2,6,6-pentamethylpiperidin-4-yl)-2,4-pyrimidinediamine], for which the IC50 was 0.5 to 1 µM.
